For 16 molecules, T/C results are on record in PubChem BioAssay AID330 (DTP/NCI, 2004).

This test has as its system P388 leukemia ip, CD2F1 mice, survival T/C. Description: NCI In Vivo Anticancer Drug Screen. Data for tumor model P388 Leukemia (intraperitoneal) in CD2F1 (CDF1) mice. Conditions: endpoint: median survival time, higher = longer survival. In outline:
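Mice carrying the transplanted tumor received test compound or vehicle. Survival was recorded in each group, and the value is the treated-group measurement divided by that of the vehicle-treated control group.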

[1] abbreviates: dose: 50.0 mg/kg/injection, schedule: Q01DX009 (ip), vehicle: Klucel (hydroxypropylcellulose) (HPC).
[2] abbreviates: dose: 100.0 mg/kg/injection, schedule: Q01DX009 (ip), vehicle: Klucel (hydroxypropylcellulose) (HPC).
The mark [3] stands for this setting: dose: 200.0 mg/kg/injection, schedule: Q01DX009 (ip), vehicle: Klucel (hydroxypropylcellulose) (HPC).
[4] abbreviates: dose: 100.0 mg/kg/injection, schedule: Q04DX003 (ip), vehicle: Klucel (hydroxypropylcellulose) (HPC).
Setting [5] is: dose: 200.0 mg/kg/injection, schedule: Q04DX003 (ip), vehicle: Klucel (hydroxypropylcellulose) (HPC).
The mark [6] stands for this setting: dose: 400.0 mg/kg/injection, schedule: Q04DX003 (ip), vehicle: Klucel (hydroxypropylcellulose) (HPC).

Values joined by “and” are separate entries in the source; they are usually repeats but may differ in a detail not shown here. Equal entries are not always repeated. Inconclusive results and toxic doses are left out.

Regarding `COc1ccc(C(CC(=O)O)CC(=O)N(CCCl)CCCl)cc1` (stereo unspecified), the T/C is, setting by setting: (dose: 25.0 mg/kg/injection, schedule: Q01DX001 (ip), vehicle: saline) 100 % of control and 102 % of control; (dose: 25.0 mg/kg/injection, schedule: Q04DX003 (ip), vehicle: saline with Tween-80) 101 % of control; (dose: 25.0 mg/kg/injection, schedule: Q04DX003 (ip), vehicle: saline) 102 % of control; (dose: 25.0 mg/kg/injection, schedule: Q04DX003 (ip), vehicle: suspension in saline) 106 % of control; (dose: 50.0 mg/kg/injection, schedule: Q01DX001 (ip), vehicle: saline) 100 % of control and 103 % of control; (dose: 50.0 mg/kg/injection, schedule: Q04DX003 (ip), vehicle: saline with Tween-80) 102 % of control. Further, the T/C reads like this: (dose: 50.0 mg/kg/injection, schedule: Q04DX003 (ip), vehicle: saline) 102 % of control; (dose: 50.0 mg/kg/injection, schedule: Q04DX003 (ip), vehicle: suspension in saline) 115 % of control; (dose: 100.0 mg/kg/injection, schedule: Q01DX001 (ip), vehicle: saline) 100 % of control and 103 % of control; (dose: 100.0 mg/kg/injection, schedule: Q04DX003 (ip), vehicle: saline with Tween-80) 101 % of control; (dose: 100.0 mg/kg/injection, schedule: Q04DX003 (ip), vehicle: saline) 97 % of control; (dose: 100.0 mg/kg/injection, schedule: Q04DX003 (ip), vehicle: suspension in saline) 124 % of control. Also, the T/C reads like this: (dose: 200.0 mg/kg/injection, schedule: Q01DX001 (ip), vehicle: saline) 100 % of control and 104 % of control; (dose: 200.0 mg/kg/injection, schedule: Q04DX003 (ip), vehicle: saline with Tween-80) 101 % of control; (dose: 200.0 mg/kg/injection, schedule: Q04DX003 (ip), vehicle: saline) 94 % of control; (dose: 200.0 mg/kg/injection, schedule: Q04DX003 (ip), vehicle: suspension in saline) 157 % of control.

On to `COc1cc(C)c(O)c(C/C=C(\C)CC2=C[C@@]3(C)CCC[C@@]3(C)[C@]3(CC(O)C(C)(C)O3)O2)c1` (stereo partly specified), for which the T/C is 98 % of control (dose: 20.0 mg/kg/injection, schedule: Q01DX005 (ip), vehicle: saline with Tween-80); 100 % of control (dose: 40.0 mg/kg/injection, schedule: Q01DX005 (ip), vehicle: saline with Tween-80); 119 % of control (dose: 80.0 mg/kg/injection, schedule: Q01DX005 (ip), vehicle: saline with Tween-80).

With `O=C1C2=C(Nc3cc([N+](=O)[O-])ccc3N2)OC1c1ccc(Cl)cc1Cl` (stereo unspecified), the T/C (dose: 30.0 mg/kg/injection, schedule: Q01DX005 (ip), vehicle: Klucel (hydroxypropylcellulose) (HPC)) is 101 % of control; the T/C (dose: 60.0 mg/kg/injection, schedule: Q01DX005 (ip), vehicle: Klucel (hydroxypropylcellulose) (HPC)) is 89 % of control and 94 % of control; the T/C (dose: 120.0 mg/kg/injection, schedule: Q01DX005 (ip), vehicle: Klucel (hydroxypropylcellulose) (HPC)) was 99 % of control; the T/C (dose: 240.0 mg/kg/injection, schedule: Q01DX005 (ip), vehicle: Klucel (hydroxypropylcellulose) (HPC)) is 111 % of control.

Take `CCCCCCCCCCCCCCCCCCCCCCCCC(O)C(=O)O` (stereo unspecified) (tested in a mixture with another compound): the T/C by setting is: (dose: 12.5 mg/kg/injection, schedule: Q01DX005 (ip), vehicle: saline with Tween-80) 106 % of control; (dose: 25.0 mg/kg/injection, schedule: Q01DX005 (ip), vehicle: saline with Tween-80) 93 % of control; (dose: 50.0 mg/kg/injection, schedule: Q01DX005 (ip), vehicle: saline with Tween-80) 87 % of control and 89 % of control; (dose: 200.0 mg/kg/injection, schedule: Q01DX005 (ip), vehicle: saline with Tween-80) 87 % of control.

With `[Pd].c1ccc([PH+](CC[PH+](c2ccccc2)c2ccccc2)c2ccccc2)cc1.c1ccc([PH+](CC[PH+](c2ccccc2)c2ccccc2)c2ccccc2)cc1`, the T/C (dose: 30.0 mg/kg/injection, schedule: Q01DX005 (ip), vehicle: saline with Tween-80) is 99 % of control.

In the case of `COC(=O)/C=C/c1cc[n+]([O-])cc1`, the T/C runs as follows: (dose: 50.0 mg/kg/injection, schedule: Q01DX005 (ip), vehicle: saline) 93 % of control; (dose: 100.0 mg/kg/injection, schedule: Q01DX005 (ip), vehicle: saline) 101 % of control; (dose: 200.0 mg/kg/injection, schedule: Q01DX005 (ip), vehicle: saline) 101 % of control.

As to `CCOC(=O)C1Cc2c([nH]c(=O)[nH]c2=O)OC1c1cccc(Cl)c1` (stereo unspecified), the T/C was 94 % of control (dose: 3.12 mg/kg/injection, schedule: Q01DX009 (ip), vehicle: saline with Tween-80); 93 % of control (dose: 6.25 mg/kg/injection, schedule: Q01DX009 (ip), vehicle: saline with Tween-80); 96 % of control (dose: 12.5 mg/kg/injection, schedule: Q01DX009 (ip), vehicle: saline with Tween-80); 100 % of control (dose: 25.0 mg/kg/injection, schedule: Q01DX009 (ip), vehicle: saline with Tween-80).

As to `Cn1nnnc1-c1cccc(F)c1`, the T/C (dose: 50.0 mg/kg/injection, schedule: Q01DX001 (ip), vehicle: Klucel (hydroxypropylcellulose) (HPC)) is 101 % of control; the T/C (dose: 100.0 mg/kg/injection, schedule: Q01DX001 (ip), vehicle: Klucel (hydroxypropylcellulose) (HPC)) is 102 % of control; the T/C (dose: 200.0 mg/kg/injection, schedule: Q01DX001 (ip), vehicle: Klucel (hydroxypropylcellulose) (HPC)) was 104 % of control.

Consider `O=C1CC2(CCCCC2)C(=O)N1c1ccc(S(=O)(=O)NC(=S)Nc2ccc(Br)cc2)cc1`, for which the T/C under setting [1] is 98 % of control, the T/C under setting [2] is 95 % of control and the T/C under setting [3] is 104 % of control.

On to `Cc1cc2ccccc2nc1-c1ccncc1`, for which the T/C (dose: 25.0 mg/kg/injection, schedule: Q04DX002 (ip), vehicle: Klucel (hydroxypropylcellulose) (HPC)) is 96 % of control; the T/C (dose: 50.0 mg/kg/injection, schedule: Q04DX002 (ip), vehicle: Klucel (hydroxypropylcellulose) (HPC)) was 96 % of control; the T/C (dose: 100.0 mg/kg/injection, schedule: Q04DX002 (ip), vehicle: Klucel (hydroxypropylcellulose) (HPC)) is 101 % of control; the T/C (dose: 200.0 mg/kg/injection, schedule: Q04DX002 (ip), vehicle: Klucel (hydroxypropylcellulose) (HPC)) was 103 % of control.

In the case of `CCN(C)N=Nc1cccnc1`, the T/C reads like this: (dose: 12.5 mg/kg/injection, schedule: Q01DX009 (ip), vehicle: saline) 103 % of control and 92 % of control and 97 % of control; (dose: 25.0 mg/kg/injection, schedule: Q01DX009 (ip), vehicle: saline) 100 % of control and 102 % of control and 92 % of control; (dose: 50.0 mg/kg/injection, schedule: Q01DX009 (ip), vehicle: saline) 103 % of control and 111 % of control and 91 % of control; (dose: 100.0 mg/kg/injection, schedule: Q01DX009 (ip), vehicle: saline) 107 % of control and 110 % of control.

Take `O=C1N=C2SCCN2C1(c1ccccc1)c1ccccc1`: the T/C reads like this: (dose: 25.0 mg/kg/injection, schedule: Q04DX003 (ip), vehicle: Klucel (hydroxypropylcellulose) (HPC)) 100 % of control; (dose: 50.0 mg/kg/injection, schedule: Q04DX003 (ip), vehicle: Klucel (hydroxypropylcellulose) (HPC)) 100 % of control; under setting [4], 92 % of control; under setting [5], 109 % of control; under setting [6], 103 % of control.

With `CC1(C)C(=O)C(C)(C)C1O[Si](C)(C)OC1C(C)(C)C(=O)C1(C)C`, the T/C is, setting by setting: under setting [4], 102 % of control; under setting [5], 101 % of control; under setting [6], 93 % of control.

Consider `O=C1CCC2(ON=C(c3ccccc3)C2Br)O1` (stereo unspecified), for which the T/C by setting is: (dose: 50.0 mg/kg/injection, schedule: Q01DX009 (ip), vehicle: saline with Tween-80) 116 % of control; (dose: 100.0 mg/kg/injection, schedule: Q01DX009 (ip), vehicle: saline with Tween-80) 108 % of control; (dose: 200.0 mg/kg/injection, schedule: Q01DX009 (ip), vehicle: saline with Tween-80) 116 % of control.

Regarding `O=C(O)c1cc(C(=O)O)c(C(=O)O)cc1C(=O)O`, the T/C is, setting by setting: (dose: 50.0 mg/kg/injection, schedule: Q01DX009 (ip), vehicle: water) 96 % of control; (dose: 100.0 mg/kg/injection, schedule: Q01DX009 (ip), vehicle: water) 100 % of control; (dose: 200.0 mg/kg/injection, schedule: Q01DX009 (ip), vehicle: water) 99 % of control.

As for `CCOC(=O)C1=C(C)O/C(=C/C=C/c2ccccc2)C1=O`, the T/C reads like this: under setting [1], 102 % of control; under setting [2], 98 % of control; under setting [3], 103 % of control.
